Source: patent US20240398737A1, “FUNCTIONALIZED LONG-CHAIN HYDROCARBON MONO- AND DI-CARBOXYLIC ACIDS AND DERIVATIVES THEREOF, AND THEIR USE FOR THE PREVENTION OR TREATMENT OF DISEASE” (Espervita Therapeutics, Inc., priority 2021, published 2024)

Tests used:
MAPKAPK2 = MAPKAPK2 (Homo sapiens (Human), UniProt P49137); experiment: Wild type kinase screen: MAPKAPK2; assay type: biochemical; settings: compound at 10 μM, 10 μM ATP, Data 1 and Data 2 duplicates
MELK = MELK (Homo sapiens (Human), UniProt Q14680); experiment: Wild type kinase screen: MELK; assay type: biochemical; settings: compound at 10 μM, 10 μM ATP, Data 1 and Data 2 duplicates
[1] = Single and repeat dose plasma and tissue pharmacokinetics in male C57BL/6 mice; assay type: in vivo, mouse; settings: for Bioavailability in brain compared to liver (fold lower): 20 mg/kg PO, male C57BL/6 mice; for Cmax / Tmax / AUC(0-t): male, C57BL/6, mouse, po
Text: Materials and methods. The study involved two arms: a single dose pharmacokinetic study and a 4-day repeated-dose pharmacokinetic study. For each arm, 56 inbred male C57BL/6 mice, aged at 6-7 week, were included. All animals were purchased from Charles River Lab (CRL, MA). Upon their arrival, they were kept in special-pathogen-free environment all the time. Briefly, they were housed in group on corncob bedding (ScottPharma, MA) in Innovive® caging system (Innovive, CA) on a 12-hour light-dark cycle (0700-1900) at 68-74° F. and 30-70% humidity. They were allowed continually to access water and regular rodent Purina 5001 diet (ScottPharma, MA) ad libitum and to acclimate in the facility for 5 days. Animal handling and procedures were conducted under the protocols and/or guidelines approved by the Institutional Animal Care and Use Committee (IACUC) of […] Biosciences, Inc. […] Also, 2× drug vehicle (3% CMC+0.4% Tween-20) was prepared and stored at 4° C. for a week. On the day of injection, 1 ml frozen 2× aqueous stock solution (20 mg/ml drug solution) aliquot is thawed and mix with another 1 ml 2× drug vehicle (3% Carboxymethyl cellulose+0.4% Tween 20) to prepare 10 mg/ml drug solution. A 25 g mouse would receive 250 μl of 10 mg/ml solution for a dose of 100 mg/kg. Lower concentrations can be achieved by further diluting the 10 mg/ml in 1× vehicle solution with 1× vehicle prepared with milliQ water. On each dosing day, both compound stocks and 2× vehicle were warmed to room temperature and was mixed at 1:1 ratio, given to a concentration of 10 mg/mL. Then 1:5-fold dilutions were obtained with 1× vehicle to 2 mg/mL. Dosing volume at 10 mL/kg (final dosage: 20 mg/kg) in the morning. Route of administration is oral gavage (volume of 10 ml/kg body weight). Study Design. In each group 4 male 6-7-week-old C57BL/6 mice were used. Doses were administered once daily via oral gavage for either a day (single dose arm, QDx1) or 4 consecutive days (repeated dose arm, QDx4) (FIG. 24). Blood, half of brain hemisphere, and one lobe of liver samples were collected from all animals of Day 1 (QDx1 arm) at pre-dose and 0.25, 2, 4, 8, 24 and 36 hours post dose, or Day 4 (QDx4 arm) at pre-dose and 0.25, 2, 4, 8, 24 and 48 hours post dose. Blood samples were collected by cardiac puncture. The blood samples were maintained in wet ice first and centrifuged to obtain plasma (2000×g, 4° C., 5 min). All three samples from each mouse were analyzed for either Compound I-1 or Compound I-32 contents by Integrated Analytical Solutions (Berkeley, CA) and the results were used for the generation of the pharmacokinetic graphs. Sample collection, storage, bioanalysis and statistical analysis. All plasma and tissue samples were analyzed by discovery grade bioanalytical method developed for estimation of each test compound in plasma and tissue samples using LC-MS/MS systems. Plasma samples were prepared as follows. Three volumes of acetonitrile containing internal standard was added to one volume of plasma to precipitate proteins. Samples were centrifuged (3000×g for 10 min) and supernatant removed for analysis by LC-MS/MS. Calibration standards and quality controls were made by preparation of a 1 mg/mL stock solution in MeOH and subsequently a series of working solutions in MeOH:water (1:1, v/v) which were spiked into blank plasma to yield a series of calibration standard samples in the range of 1.0 ng/mL to 10 μg/mL. All incurred PK/PD plasma samples were treated identically to the calibration standards and quality control samples. LC-MS/MS analysis was performed utilizing multiple reaction monitoring for detection of characteristic ions for each drug candidate, additional related analytes and internal standard. Tissue samples were prepared as follows. Three volumes of PBS buffer (pH 7.4) were added to one volume of each tissue sample which was then homogenized to obtain each tissue homogenate sample. […]

BMX/ETK = BMX/ETK (Homo sapiens (Human), UniProt P51813); experiment: Wild type kinase screen: BMX/ETK; assay type: biochemical; settings: compound at 10 μM, 10 μM ATP, Data 1 and Data 2 duplicates
[2] = brain, 20 mg/kg, mouse brain, QD × 1, value in parentheses marked * (reanalysis per footnote of Tables 8-9)
[3] = brain, 20 mg/kg, mouse brain, QD × 4, value in parentheses marked * (reanalysis per footnote of Tables 8-9)
[4] = brain, 20 mg/kg/day, mouse brain, 20 mg/kg/day PO, 4 consecutive days (QD × 4)
[5] = brain, 20 mg/kg/day, mouse brain, 20 mg/kg/day PO, single dose (QD × 1)
[6] = liver, 20 mg/kg, mouse liver, QD × 1, value in parentheses: timepoint 0.25 h samples after reanalysis
[7] = liver, 20 mg/kg, mouse liver, QD × 4, value in parentheses: timepoint 0.25 h samples after reanalysis
[8] = liver, 20 mg/kg/day, mouse liver, 20 mg/kg/day PO, 4 consecutive days (QD × 4)
[9] = liver, 20 mg/kg/day, mouse liver, 20 mg/kg/day PO, single dose (QD × 1)
[10] = plasma, 20 mg/kg, mouse plasma, QD × 1, value in parentheses: timepoint 0.25 h samples after reanalysis
[11] = plasma, 20 mg/kg, mouse plasma, QD × 4, value in parentheses: timepoint 0.25 h samples after reanalysis
[12] = plasma, 20 mg/kg/day, mouse plasma, 20 mg/kg/day PO, 4 consecutive days (QD × 4)
[13] = plasma, 20 mg/kg/day, mouse plasma, 20 mg/kg/day PO, single dose (QD × 1)
[14] = mouse brain, 20 mg/kg/day PO, 4 consecutive days (QD × 4)
[15] = mouse brain, 20 mg/kg/day PO, single dose (QD × 1)
[16] = mouse liver, 20 mg/kg/day PO, 4 consecutive days (QD × 4)
[17] = mouse liver, 20 mg/kg/day PO, single dose (QD × 1)

BMX/ETK, sequence (P51813 whole entry): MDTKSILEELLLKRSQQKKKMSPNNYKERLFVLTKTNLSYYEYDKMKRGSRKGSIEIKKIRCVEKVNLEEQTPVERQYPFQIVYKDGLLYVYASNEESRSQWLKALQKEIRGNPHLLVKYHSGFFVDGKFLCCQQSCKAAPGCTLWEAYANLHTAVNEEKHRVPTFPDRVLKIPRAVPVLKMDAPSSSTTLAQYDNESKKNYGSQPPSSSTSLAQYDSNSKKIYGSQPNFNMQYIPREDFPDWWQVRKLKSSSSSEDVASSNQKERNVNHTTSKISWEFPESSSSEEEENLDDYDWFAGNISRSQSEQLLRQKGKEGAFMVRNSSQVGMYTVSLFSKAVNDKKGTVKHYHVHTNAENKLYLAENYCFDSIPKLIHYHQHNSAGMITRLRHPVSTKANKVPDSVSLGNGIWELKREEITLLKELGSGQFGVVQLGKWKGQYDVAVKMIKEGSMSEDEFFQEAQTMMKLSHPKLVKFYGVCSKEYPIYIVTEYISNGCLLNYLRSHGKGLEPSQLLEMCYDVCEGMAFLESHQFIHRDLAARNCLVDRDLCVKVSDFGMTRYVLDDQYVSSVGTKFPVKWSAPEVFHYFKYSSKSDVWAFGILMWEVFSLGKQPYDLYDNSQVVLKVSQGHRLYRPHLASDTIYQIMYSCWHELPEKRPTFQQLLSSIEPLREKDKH
MAPKAPK2, sequence (P49137 whole entry, species assumed): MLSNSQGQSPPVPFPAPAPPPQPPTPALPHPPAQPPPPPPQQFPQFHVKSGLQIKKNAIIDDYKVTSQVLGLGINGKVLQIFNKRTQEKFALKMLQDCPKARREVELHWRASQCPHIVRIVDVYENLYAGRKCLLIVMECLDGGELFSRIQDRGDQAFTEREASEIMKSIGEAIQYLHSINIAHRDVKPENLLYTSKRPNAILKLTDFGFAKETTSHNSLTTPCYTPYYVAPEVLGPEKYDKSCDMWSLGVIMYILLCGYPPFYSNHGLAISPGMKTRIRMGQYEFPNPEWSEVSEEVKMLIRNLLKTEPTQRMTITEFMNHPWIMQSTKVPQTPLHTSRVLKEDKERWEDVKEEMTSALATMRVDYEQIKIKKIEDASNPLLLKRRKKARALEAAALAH
MELK, sequence (Q14680 whole entry, species assumed): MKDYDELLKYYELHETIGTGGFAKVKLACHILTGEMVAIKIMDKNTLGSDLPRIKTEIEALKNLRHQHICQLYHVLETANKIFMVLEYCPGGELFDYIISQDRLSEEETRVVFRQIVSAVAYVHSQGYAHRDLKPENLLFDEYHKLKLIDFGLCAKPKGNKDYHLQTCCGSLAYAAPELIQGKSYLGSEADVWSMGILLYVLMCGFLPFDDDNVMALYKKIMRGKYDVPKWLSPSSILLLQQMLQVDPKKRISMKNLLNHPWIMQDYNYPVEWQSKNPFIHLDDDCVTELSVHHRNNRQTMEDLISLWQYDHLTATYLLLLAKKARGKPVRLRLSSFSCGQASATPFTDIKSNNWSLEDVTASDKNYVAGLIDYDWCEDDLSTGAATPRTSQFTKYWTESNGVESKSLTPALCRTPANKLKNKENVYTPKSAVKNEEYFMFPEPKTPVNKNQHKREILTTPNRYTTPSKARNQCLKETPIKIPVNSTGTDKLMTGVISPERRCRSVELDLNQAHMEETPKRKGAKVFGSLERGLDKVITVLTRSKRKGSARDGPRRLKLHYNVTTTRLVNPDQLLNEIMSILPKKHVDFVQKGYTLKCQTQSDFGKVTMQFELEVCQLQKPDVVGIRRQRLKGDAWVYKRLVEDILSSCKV

SMILES	% Enzyme Activity (relative to DMSO controls) (MAPKAPK2) [%]	% Enzyme Activity (relative to DMSO controls) (MELK) [%]	Bioavailability in brain compared to liver (fold lower) [1]	Cmax [1, 4] [ng/g]	Tmax [1, 4] [min]	Cmax [1, 5] [ng/g]	Tmax [1, 5] [min]	Cmax [1, 8] [ng/g]	Tmax [1, 8] [min]	Cmax [1, 9] [ng/g]	Tmax [1, 9] [min]	AUC(0-t) [1, 12] [µg·h/mL]	Cmax [1, 12] [µg/mL]	Tmax [1, 12] [min]	AUC(0-t) [1, 13] [µg·h/mL]	Cmax [1, 13] [µg/mL]	Tmax [1, 13] [min]	AUC0-t (h*ng/g) [1, 14]	AUC0-t (h*ng/g) [1, 15]	AUC0-t (h*ng/g) [1, 16]	also measured
CC(C)(CCCCc1ccc(CCCCC(C)(C)C(=O)O)cc1)C(=O)O [Compound I-1, 6-[4-(5-carboxy-5-methylhexyl)-phenyl]-2,2-dimethylhexanoic acid]	92.75	106.55	300-400 fold	168	240	492	120	30900	15	27000	15	1170	102	15	1380	102	15	1,220 h*ng/g	1,183 h*ng/g	687,414 h*ng/g	Cmax [1, 2]: 1020 ng/g; Tmax [1, 2]: 15 min; Cmax [1, 3]: 1390 ng/g; Tmax [1, 3]: 15 min; Cmax [1, 6]: 21500 ng/g; Tmax [1, 6]: 15 min; Cmax [1, 7]: 46600 ng/g; Tmax [1, 7]: 15 min; AUC(0-t) [1, 10]: 1670 µg·h/mL; Cmax [1, 10]: 90 µg/mL; Tmax [1, 10]: 15 min; AUC(0-t) [1, 11]: 1090 µg·h/mL; Cmax [1, 11]: 76.1 µg/mL; Tmax [1, 11]: 15 min; AUC0-t (h*ng/g) ([1]; mouse brain, QD × 1, value in parentheses marked * (reanalysis per footnote of Tables 8-9)): (2,091)* h*ng/g; AUC0-t (h*ng/g) ([1]; mouse brain, QD × 4, value in parentheses marked * (reanalysis per footnote of Tables 8-9)): (3,995)* h*ng/g; AUC0-t (h*ng/g) [1, 17]: 425,184 h*ng/g; AUC0-t (h*ng/g) ([1]; mouse liver, QD × 1, value in parentheses: timepoint 0.25 h samples after reanalysis): (469,726)* h*ng/g; AUC0-t (h*ng/g) ([1]; mouse liver, QD × 4, value in parentheses: timepoint 0.25 h samples after reanalysis): (718,455)* h*ng/g; % Enzyme Activity (relative to DMSO controls) (BMX/ETK): 51.72%
CC(C)(CCCCc1cccc(CCCCC(C)(C)C(=O)O)c1)C(=O)O [Compound I-32, 6-[3-(5-carboxy-5-methylhexyl)-phenyl]-2,2-dimethylhexanoic acid]	90.61	110.73	300-400 fold	604	240	362	120	43000	240	25100	120	758	76.5	240	240	50.2	120	6,304 h*ng/g	1,527 h*ng/g	100,6991 h*ng/g	AUC0-t (h*ng/g) [1, 17]: 405,934 h*ng/g; % Enzyme Activity (relative to DMSO controls) (BMX/ETK): 52.97%
